Literature values, collected in US20250051276A1 (priority 2021, published 2025).

Experiments:
[1] = system: mice; conditions: hallucinogenic potential; cited from earlier work
[2] = system: 5HT2A sensor; conditions: cited from earlier work
[3] = system: 5HT2A sensor; conditions: cited from earlier work; remark: listed apart in the source

SMILES | head-twitch response (HTR) [1] | activation of the 5HT2A sensor assay in agonist mode [2] | competition with 5-HT in the 5HT2A sensor assay in antagonist mode [3]
COc1ccc2[nH]cc(CCN(C)C)c2c1 [Compound 5-MeO-DMT, 5-MeO-DMT] | produces a robust, dose-dependent head-twitch response | activate the 5HT2A sensor assay in agonist mode | –
CCN(CC)CCc1c[nH]c2cc(F)ccc12 [Compound 6-F-DET, 6-F-DET] | – | do not activate the 5HT2A sensor assay in agonist mode | can compete with 5HT binding to 5HT2A
COc1ccc2c(CCN(C)C)c[nH]c2c1 [Compound 6-MeO-DMT, 6-MeO-DMT] | does not produce a HTR | do not activate the 5HT2A sensor assay in agonist mode | compete off 5-HT
